Patent US7745644B2, “Antibiotic compounds” (Merck Sharp & Dohme Corp., priority 2003, dated 2010)
Values after ≈ are worked out from the molar mass of the structure shown.

Columns and labels:
B. subtilis = experiment: Microbroth dilution MIC assay; assay type: cell-based, Bacillus subtilis; details: various strains of B. subtilis
Protocol: (§1) The strains used are isolates from either the Merck Culture Collection, the Merck Clinical Culture Collection or from Clinical Trials. The strain of Haemophilus influenzae is a mouse pathogen used for in vivo testing at Merck. The Escherichia coli strain is a cell wall permeable strain. The Candida albicans strain is used as a control. These culture are maintained as frozen stocks at −80° C. in a.) Microbank beads; b.) 2× Skim Milk; or c.) in 2× Trypticase Soy Broth+15% glycerol/50% horse serum (Haemophilus and Streptococcus pneumoniae).
(§2) Selected isolates are subcultured onto either Chocolate Agar Plates (Haemophilus influenzae), onto Trypticase Soy+5% Sheep Blood Agar Plates (Streptococcus pneumoniae, Staphylococcus aureus, Escherichia coli, Enterococcus, Bacillus) or onto Sabouraud Dextrose Agar (Candida) and incubated at 35° C. Haemophilus and Streptococcus pneumoniae are incubated in 5% CO2; all other isolates are incubated in ambient air. Isolates are subcultured 2× before assay.
(§3) Colonies are selected from plates and used to prepare an inoculum equivalent to a 0.5 McFarland standard in Trypticase Soy Broth. […]
(§4) All wells of microtiter plates are inoculated with (saline-diluted) culture using the MIC 2000 System, an automated plate inoculating device which delivers an inoculum of 1.5 TL per well. […] Results are recorded after 22-24-hours' incubation. Plates were read to no growth.

S. aureus = experiment: Microbroth dilution MIC assay; assay type: cell-based, Staphylococcus aureus
Protocol: as §1, §2
(§5) Colonies are selected from plates and used to prepare an inoculum equivalent to a 0.5 McFarland standard in Trypticase Soy Broth. An inoculum with a density equivalent to a 1.0 McFarland standard is prepared for Streptococcus pneumoniae. The inoculum density for all cultures is −10^8 CFU/mL in TSB. This TSB inoculum is diluted 1:10 in sterile saline (4 mL inoculum+36 mL saline; equivalent to −10^7 CFU/mL) and kept on ice until used to inoculate microtiter plates.
All wells of 96-well microtiter plates (Dynex) are filled with 100 TL media. Haemophilus test media plates are prepared to test Haemophilus influenzae; Cation-Adjusted Mueller Hinton+5% Lysed Horse Blood plates are prepared to test Streptococcus pneumoniae; Cation-Adjusted Mueller Hinton Broth plates are prepared to test Enterococcus, Staphylococcus aureus, Escherichia coli and Bacillus subtilis. RPMI 1640 is used to test Candida The MICs against S. aureus Smith are determined in Cation-adjusted Mueller Hinton and in Cation-Adjusted Mueller Hinton+50% Human Serum to determine if the compound is inactivated by some component in serum (indicated by an increase in the MIC). Filled plates are wrapped in plastic bags (to minimize evaporation), stored frozen and thawed before use.
The compounds are prepared on a weight basis. Compounds are prepared to 2 mg/mL in 100% DMSO, then diluted to 1 mg/mL in a 1:1 dilution of DMSO/2×CAMHB (final concentration=50% DMSO/50% CAMHB). […]
as §4

[1] = tested on: vancomycin-resistant Enterococcus sp. (VRE); experiment: Microbroth dilution MIC assay; assay type: cell-based
Protocol: as §1, §2, §3, §4

[2] = Microbroth dilution MIC assay, all test strains pooled; assay type: cell-based; details: range over all test strains, including resistant ones; NCCLS guidelines; read-out: minimum inhibitory concentration (MIC)
Protocol: as §1, §2, §3, §4

E. faecalis = experiment: Microbroth dilution MIC assay; assay type: cell-based, Enterococcus faecalis; details: various strains of E. faecalis
Protocol: as §1, §2, §3, §4

S. epidermidis = experiment: Microbroth dilution MIC assay; assay type: cell-based, Staphylococcus epidermidis; details: macrolide-resistant S. epidermidis
S. pneumoniae = experiment: Microbroth dilution MIC assay; assay type: cell-based, Streptococcus pneumoniae; details: various strains of S. pneumoniae
Protocol: as §1, §2, §3, §4

E. coli = experiment: Microbroth dilution MIC assay; assay type: cell-based, Escherichia coli; details: various strains of E. coli; cell wall permeable strain
Protocol: as §1, §2, §3, §4

E. faecium = experiment: Microbroth dilution MIC assay; assay type: cell-based, Enterococcus faecium
Protocol: as §1, §2, §5
All wells of 96-well microtiter plates (Dynex) are filled with 100 TL media. […]
as §4

**Q.** For C[C@@]12C[C@]34C=CC(=O)[C@](C)(CCC(=O)Nc5c(O)ccc(C(=O)O)c5O)C3[C@@H](CC1C4)O2 (some centres unmarked) [Compound I], which antibacterial activity (B. subtilis) is on record?
**A.** demonstrates antibacterial activity

**Q.** What about the antibacterial activity (S. aureus; linezolid-resistant S. aureus) of the same compound?
**A.** demonstrates antibacterial activity

**Q.** What about the antibacterial activity (S. aureus; macrolide-resistant S. aureus) of the same compound?
**A.** demonstrates antibacterial activity

**Q.** What about the antibacterial activity (S. aureus; methicillin-resistant S. aureus (MRSA)) of the same compound?
**A.** demonstrates antibacterial activity

**Q.** And the antibacterial activity (S. aureus; various strains of S. aureus)?
**A.** demonstrates antibacterial activity

**Q.** And the antibacterial activity [1]?
**A.** demonstrates antibacterial activity

**Q.** And the MIC [2]?
**A.** 0.1 to 32 µg/mL (≈ 0.227 to 72.5 µM)

**Q.** What about the antibacterial activity (E. faecalis) of the same compound?
**A.** demonstrates antibacterial activity

**Q.** And the antibacterial activity (S. epidermidis)?
**A.** demonstrates antibacterial activity

**Q.** What about the antibacterial activity (S. pneumoniae) of the same compound?
**A.** demonstrates antibacterial activity

**Q.** And the antibacterial activity (E. coli)?
**A.** demonstrates antibacterial activity

**Q.** What about the antibacterial activity (E. faecium; linezolid-resistant E. faecium) of the same compound?
**A.** demonstrates antibacterial activity

**Q.** What about the antibacterial activity (E. faecium; multidrug-resistant E. faecium) of the same compound?
**A.** demonstrates antibacterial activity

**Q.** What about the antibacterial activity (E. faecium; various strains of E. faecium) of the same compound?
**A.** demonstrates antibacterial activity
